The text below walks through data of patent publication US8618054B2, “Interleukin-1 receptor antagonists, compositions, and methods of treatment” (Valorisation-Rechereche Société en Commandite, priority 2004, dated 2013).

For test [1], the system named is IL-1R/IL-1RacP receptor. The experiment in a line: IL-1-induced PGE2 synthesis in piglet brain microvascular endothelial cells. The test is classed as cell-based, porcine. To be noted: for potency and efficacy, IL-1-induced PGE2 synthesis: truncated derivatives, FIG. 18 (WI-38 and endothelial cells). The protocol:
(§1) It is well known in the art that IL-1 induces the synthesis of prostaglandin E2 (PGE2) in endothelial cells and/or chondrocytes in vitro. Therefore, human chondrocytes and piglet brain microvascular endothelial cells were pre-incubated 45-60 minutes at 37° C. with peptide API-101 (^10−6M) and human IL-1 (10 ng/ml) was added in the growing medium. After 24 hours of incubation, growth medium was collected and evaporated. PGE2 measurement was determined by RIA assay with a commercial kit (Cederlane).

Test [2] can be described thus: TNBS-induced inflammatory bowel disease rat model, Example 6 (48 h; MPO, macroscopic, histologic). The class given is in vivo. Set-up: macroscopic evaluation (median score): scale not given here. The protocol:
Colon inflammation was induced by intra-rectal/colon administration of the hapten trinitrobenzene sulphonic acid (TNBS) on male Sprague-Dawley rats (175-200 g) (Bouma, Nature Rev, 2003; Morris, Gastroenterology, 1989). Animals were anesthetized with isoflurane and TNBS dissolved in 50% ethanol (vol/vol). 120 mg/ml (TNBS) was administered into the colon (total volume of 0.25 ml per rat) using a polyethylene tube (PE50). The cannula was inserted at 8 cm from the anus and kept in place for at least 15 min after TNBS administration in order to prevent expulsion of the solution. […] A third group (control) was not injected with TNBS. Six days after administration of TNBS, rats were killed by CO2 inhalation. Day 6 was chosen as an endpoint because by day 7 spontaneous tissue regeneration begins and this can mask the therapeutic effect of the tested peptide or peptide derivative. Colon was removed and examined macroscopically (adhesions, ulcerations, discoloration and bleeding) and histologically (neutrophil infiltration, epithelial injury, crypt distortion and ulcerations) (Anthony et al. 1995; Padol et al. 2000; Dieleman, L A, et al. 1997; Torres M I et al. 1999). Two animals per group were studied.
Colon inflammation was induced by intra-rectal/colon administration of the hapten trinitrobenzene sulphonic acid (TNBS) as described in Example 4. Two hours prior to TNBS administration, peptides, peptidomimetics or 0.9% saline were administered intravenously (iv) via the caudal vein (various concentrations of mg/kg/d) (total volume of 0.3 ml). […] A third group (control) was not injected with TNBS. […] Also, these IL-1R antagonists were given twice a day (BID); Remicade® (anti-TNFα) (10 mg/kg) and dexamethasone (0.75 mg/kg) were administered intraperitoneally but only once a day (qd). The intrarectal administration (ir) of 101.10, 101.113 (1 and 2.5 mg/kg), and 5-ASA (50 mg/kg) was done one hour after TNBS administration, and twice a day, except for 5-ASA which is once a day. Finally, 101.10 (1-5 mg/kg) was also administered orally by gavage (po), twice a day. Forty-eight hours after administration of TNBS, rats were killed by CO2 inhalation. Colon was removed and assessed macroscopically (adhesions, ulcerations, discoloration and bleeding) and histologically (neutrophil infiltration, epithelial injury, crypt distortion and ulcerations). One to seven animals per group were studied, according to treatments. Myeloperoxidase (MPO) activity was measured on tissue lysates.

The target in test [3] is T1, IL-1R/IL-1RacP receptor (Sus scrofa, UniProt A0A5G2QSI4).
T1 construct: endogenous in cells; host or cells: piglet brain microvascular endothelial cells
T1 sequence (A0A5G2QSI4 21-572): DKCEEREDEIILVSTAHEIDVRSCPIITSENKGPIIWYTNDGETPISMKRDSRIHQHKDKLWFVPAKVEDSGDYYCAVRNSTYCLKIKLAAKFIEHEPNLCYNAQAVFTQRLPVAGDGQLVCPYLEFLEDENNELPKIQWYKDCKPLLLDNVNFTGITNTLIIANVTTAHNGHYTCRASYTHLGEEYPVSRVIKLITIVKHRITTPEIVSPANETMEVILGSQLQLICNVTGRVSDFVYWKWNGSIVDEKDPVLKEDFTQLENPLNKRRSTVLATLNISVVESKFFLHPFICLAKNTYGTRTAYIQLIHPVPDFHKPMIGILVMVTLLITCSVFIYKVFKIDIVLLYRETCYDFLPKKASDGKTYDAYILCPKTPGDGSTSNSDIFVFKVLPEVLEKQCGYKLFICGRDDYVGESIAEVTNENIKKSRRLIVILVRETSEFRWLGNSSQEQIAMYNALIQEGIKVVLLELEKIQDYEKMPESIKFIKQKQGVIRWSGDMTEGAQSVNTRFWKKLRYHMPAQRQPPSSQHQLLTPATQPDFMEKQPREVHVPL
The experiment in a line: IL-1-induced PGE2 synthesis in piglet brain microvascular endothelial cells. The class given is cell-based, porcine. The note with it: endothelial cells; for inhibition of IL-1-induced PGE2 synthesis, compared with parent API-101: alanine scan peptides 10^−6M. As to the method: as §1

Test [4] deals with T2, IL-1R (Homo sapiens, UniProt P14778).
T2 sequence (P14778 18-569): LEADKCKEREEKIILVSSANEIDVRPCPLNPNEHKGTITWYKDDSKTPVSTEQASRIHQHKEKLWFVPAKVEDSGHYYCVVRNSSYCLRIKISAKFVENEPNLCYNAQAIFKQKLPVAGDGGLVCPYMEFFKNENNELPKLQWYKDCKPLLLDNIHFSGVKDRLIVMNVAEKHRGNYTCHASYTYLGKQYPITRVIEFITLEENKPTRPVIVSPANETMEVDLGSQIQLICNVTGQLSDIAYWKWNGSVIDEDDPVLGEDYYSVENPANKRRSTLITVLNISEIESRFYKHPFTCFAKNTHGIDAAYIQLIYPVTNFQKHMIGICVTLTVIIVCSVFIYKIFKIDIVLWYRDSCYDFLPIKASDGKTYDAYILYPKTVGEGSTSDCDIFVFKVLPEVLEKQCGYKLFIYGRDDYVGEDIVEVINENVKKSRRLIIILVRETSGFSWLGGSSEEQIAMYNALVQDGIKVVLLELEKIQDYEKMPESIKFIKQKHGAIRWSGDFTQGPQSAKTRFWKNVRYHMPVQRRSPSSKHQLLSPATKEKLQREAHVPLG
The experiment in a line: Characterization of peptidomimetics (FIGS. 26, 29, 30; assay not stated). To be noted: FIG. 26.

Test [5] deals with T3, IL-1R/IL-1RacP receptor (Rattus norvegicus, UniProt Q02955).
T3 construct: from tissue; host or cells: whole animal, Sprague-Dawley rat
T3 sequence (Q02955 20-576): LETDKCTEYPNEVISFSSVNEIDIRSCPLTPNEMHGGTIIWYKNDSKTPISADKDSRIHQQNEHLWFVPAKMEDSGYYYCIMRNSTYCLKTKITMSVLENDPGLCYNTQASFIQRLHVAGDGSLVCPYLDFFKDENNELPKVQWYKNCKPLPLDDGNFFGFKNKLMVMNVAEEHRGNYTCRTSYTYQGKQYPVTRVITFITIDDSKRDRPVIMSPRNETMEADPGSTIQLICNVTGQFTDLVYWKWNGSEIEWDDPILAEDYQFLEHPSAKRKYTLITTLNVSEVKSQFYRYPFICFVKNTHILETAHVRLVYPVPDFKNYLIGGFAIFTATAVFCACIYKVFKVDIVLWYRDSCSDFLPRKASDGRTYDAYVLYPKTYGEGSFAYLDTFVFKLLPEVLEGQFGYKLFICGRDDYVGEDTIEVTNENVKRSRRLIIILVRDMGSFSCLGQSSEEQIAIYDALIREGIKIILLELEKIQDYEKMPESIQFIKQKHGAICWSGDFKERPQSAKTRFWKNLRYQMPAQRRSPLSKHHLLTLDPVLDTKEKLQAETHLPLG
The experiment in a line: IL-1β-induced systemic hypotension in rats. The class given is in vivo. To be noted: jugular injection. The protocol: The API-101 derivatives, API-101.10 (SEQ ID NO: 10) (and others) were tested to assess whether they could reverse the physiological actions of the natural ligand in vivo by injecting the derivative through the jugular or directly into the stomach (to verify the stability of the peptide through the digestive tract). Sprague-Dawley rats (300 g) were anesthetized with isoflurane (2.5-4%). The natural ligand (IL-1β) or vehicle (saline) was injected through the jugular vein (5 μg/kg). Blood was taken from the carotid artery for subsequent PGE2 measurements before and 10 min after each injection. Peptides were administered (dosage based on IC50 values and a volume of distribution equivalent to the extracellular space) either in the jugular vein or directly in the stomach (5 times dose used intravenously, (iv)). Arterial blood pressure and heart rate were continuously monitored (Gould) while temperature and blood gases (Radiometer) were measured for routine analysis as previously described (Li et al. 1997; Hardy et al. 1999; Najarian et al. 2000). Experiments were repeated 3 times.

Test [6] deals with T4, IL-1R/IL-1RacP receptor (Homo sapiens, UniProt P14778).
T4 sequence (P14778 18-569): T2 sequence (P14778 18-569)
The experiment in a line: IL-1-induced PGE2 synthesis in human chondrocytes. The test is classed as cell-based. Also on record: endogenous in cells. The note with it: alanine scan peptides 10^−6M. The protocol:
as §1

Test [7] deals with IL-1R/IL-1RacP receptor. The experiment in a line: Ex vivo vasomotricity: reversal of IL-1β-induced vasodilation of piglet pial vessels. The note with it: IL-1β 75 ng/ml. The protocol: Ex vivo vasomotor response on brain vessels was performed as described (Li et al., 1996; Hou et al., 2000; Hou et al., 2001; Hou et al., 2003). Brains were removed from Yorkshire piglets. Slices of cortex exposing the pial vessels were pinned to a wax base of a 20 ml bath containing Krebs buffer (pH 7.4) equilibrated with 95% O2, 5% CO2 and maintained at 37° C. Microvessels were visualized and recorded using a video camera mounted on a dissecting microscope. Vascular diameter was measured using a digital image analyzer. Vascular diameter was recorded before and after topical application of pre-constricting agent, U46619 (10^−7 M). After stabilization of preparation, the ligand (IL-1β, 75 ng/ml) was added until stable vasodilation was detected. Peptides were subsequently added at different concentrations from 10^−10 to 10^−5 M. Reversal of vasodilatation was visualized and measured as previously described (Hou, et al. 2000; Hou et al. 2001; Hou et al. 2003); triplicate measurements were conducted on 2 animals.

Setting [8] is: Continuous infusion (ip), 0.5 mg/kg/d.
Where [9] appears, read: Intermittent injection ip, 0.2-BID mg/kg/d.

Marks after values point to notes of the source that are not given here. Where a SMILES comes first, the peptide text is derived from it.

Usually IC50 stands for the point on the concentration scale where inhibition reaches its midpoint. Compound `CC(C)C[C@@H](NC(=O)[C@@H](CCC(=O)O)NC(=O)[C@H]1CCCN1C(=O)[C@H](NC(=O)[C@@H](Cc1ccc(O)cc1)NC(=O)[C@H](N)CCCNC(=N)N)[C@H](C)O)C(=O)N[C@H](C)C(N)=O` [API-101.107, RYTPELA] (HELM PEPTIDE1{[dR].[dY].[dT].[dP].[dE].[dL].[dA].[am]}$$$$V2.0; C-terminus assumed) returned an IC50 in test [1] (FIG. 15, cell type not stated) of 1.2 pM. For the same compound, in test [2] (setting [8]), the “MPO (% of TNBS + Saline)” value is given as 37 % of TNBS + Saline and the “histologic evaluation (median score)” value came to 1.5. In addition, in test [2] (setting [9]), the “MPO (% of TNBS + Saline)” value is given as 112 % of TNBS + Saline, the “histologic evaluation (median score)” value was 2.5 and the “macroscopic evaluation (median score)” value was 1.37^†. Moreover, the “reduction in MPO activity, macroscopic and histologic score, compared with Kineret” value in test [2] (intraperitoneal osmotic pumps (continuous infusion)) was “superior or equivalent in efficacy to Kineret”.

For `CC(C)C[C@@H](NC(=O)[C@@H](CCC(=O)O)NC(=O)[C@H]1CC[C@H]2CC[C@@H](NC(=O)[C@@H](Cc3ccc(O)cc3)NC(=O)[C@H](N)CCCNC(=N)N)C(=O)N21)C(=O)N[C@H](C)C(N)=O` [API-101.110, RY(I^2aa)ELA], in test [3], the “efficacy compared with API-101.107” value is reported as “twice the efficacy” and the “potency, fold higher than API-101.107” value was 10 fold. Moreover, in test [4], the IC50 turned out to be 10 pM.

Take PRYTVELA [API-101.9]: the “prevention of IL-1β-induced hypotension, in words” value in test [5] is listed as “less effective”.

AARYTVELA [API-101.1]: the “inhibition of IL-1-induced PGE2 synthesis, compared with parent API-101” value (“inhibition … compared with parent API-101” for short) in test [3] is listed as “slightly improved efficacy”. In addition, the “inhibition … compared with parent API-101” value in test [6] is recorded as “slightly improved efficacy”. In addition, in test [7], the “reversal of IL-1β-induced vasodilation” value is reported as “reversed the vasodilation” and the vasodilation abolished was found to be 70%.

On to APRATVELA [API-101.3], for which the “reversal of IL-1β-induced vasodilation” value in test [7] is listed as “reversed the vasodilation”.

With TVELA [API-101.12], the “potency and efficacy, IL-1-induced PGE2 synthesis” value in test [1] was “decrease in potency and efficacy”.

For YTVELA [API-101.11], the “potency and efficacy, IL-1-induced PGE2 synthesis” value in test [1] was “decrease in potency and efficacy”.

For the compound APRYTVALA [API-101.6], the “inhibition … compared with parent API-101” value in test [3] and in test [6] was “lost almost all activity” each time. Besides, the “reversal of IL-1β-induced vasodilation” value in test [7] is reported as “reversed the vasodilation”.
